Assay results reported in US11529436B2, “Engineered three-dimensional skin tissues, arrays thereof, and methods of making the same” (Organovo, Inc., priority 2014, dated 2022).

Experiments:
Assay type in all cases: cell-based, human
[1] = test system: bioprinted full thickness skin tissue; assay: Lactate dehydrogenase (LDH) activity in media of bioprinted skin tissue, skin irritation test
Source text: Bio-ink was generated by a cellular mixture of 100% primary adult human dermal fibroblasts (HDFa) in 8% gelatin (NOVOGEL 2.0) at a concentration of 100 million cells per milliliter. The cell: gelatin ratio was altered to reduce the cellular density of the dermal sheet to better mimic dermal tissue in native skin. Three-dimensional bio-ink constructs were printed by continuous deposition using the NOVOGEN BIOPRINTER platform in a 4 mm×4 mm×0.5 mm base to create a dermal structure resembling a sheet. […] The transwell printing surface contained a polytetrafluoroethylene (PTFE) membrane coated with equimolar mixture of types I and III collagen (bovine) with pores 3 μm in size. Epidermal cell paste containing a mixture of 100% primary neonatal human epidermal keratinocytes (HEKn) was then printed on top of the dermal bio-ink. Cell paste was measured post print at 87.1% viable by trypan exclusion assay. Cell numbers in the deposited epidermal layer was estimated at 60,000 cells by cell counting on a Cell-O-Meter. Immediately following the print, constructs were placed at 4° C. for 10 minutes. Cold media was then added to the outer well of the transwell in a volume of 3 ml. The media used for subsequent growth and maintenance of the skin tissue was a 50:50 ratio of HDFa: HEKn media. The initial volume added was sufficient to submerge the structure. All subsequent media changes used warmed media (37° C.) added to the outer well of the transwell and not to the inner basket. Media was changed 48 hours later and reduced to a volume of 1.5 ml per well to bring the structure to an air-liquid interface (ALI). Media and subsequently changed 48 hours after that (day 4) at a volume of 1.5 ml. […] IL-1α production (R&D Systems) was analyzed in a colorimetric assays per manufacturer's protocol. Media was analyzed for lactate dehydrogenase as a marker for cytotoxicity. IL-1α production was assessed as a complementary endpoint to classic cytotoxicity testing to improve predictability of irritants. […] Viability was measured as fluorescence in the media by conversion of resazurin to resorufin. […]

[2] = test system: bioprinted full thickness skin tissue; assay: Viability of bioprinted skin tissue by alamar blue assay, skin irritation test
Source text: Bio-ink was generated by a cellular mixture of 100% primary adult human dermal fibroblasts (HDFa) in 8% gelatin (NOVOGEL 2.0) at a concentration of 100 million cells per milliliter. The cell: gelatin ratio was altered to reduce the cellular density of the dermal sheet to better mimic dermal tissue in native skin. Three-dimensional bio-ink constructs were printed by continuous deposition using the NOVOGEN BIOPRINTER platform in a 4 mm×4 mm×0.5 mm base to create a dermal structure resembling a sheet. […] The transwell printing surface contained a polytetrafluoroethylene (PTFE) membrane coated with equimolar mixture of types I and III collagen (bovine) with pores 3 μm in size. Epidermal cell paste containing a mixture of 100% primary neonatal human epidermal keratinocytes (HEKn) was then printed on top of the dermal bio-ink. Cell paste was measured post print at 87.1% viable by trypan exclusion assay. Cell numbers in the deposited epidermal layer was estimated at 60,000 cells by cell counting on a Cell-O-Meter. Immediately following the print, constructs were placed at 4° C. for 10 minutes. Cold media was then added to the outer well of the transwell in a volume of 3 ml. The media used for subsequent growth and maintenance of the skin tissue was a 50:50 ratio of HDFa: HEKn media. The initial volume added was sufficient to submerge the structure. All subsequent media changes used warmed media (37° C.) added to the outer well of the transwell and not to the inner basket. Media was changed 48 hours later and reduced to a volume of 1.5 ml per well to bring the structure to an air-liquid interface (ALI). Media and subsequently changed 48 hours after that (day 4) at a volume of 1.5 ml. On day 5, media was changed and further reduced to 1 ml per well and subsequently changed daily. On day 10, skin tissues were subject to a skin irritation test method using 1% TRITON X-100. 1% TRITON X-100 is a known irritant and reference chemical currently used in other 3D skin models. Methods were based on OECD guidelines 439 and 431 for applying human skin models to in vitro skin irritation or corrosion, respectively. On day 10, conditioned media was saved (designated time=0) and 1 ml of fresh media was added to the outer well of the transwell. The printed skin tissue was then treated with 20 μl of PBS as a negative control or with 20 μl of 1% TRITON X-100 as a positive control and known irritant. […] IL-1α production (R&D Systems) was analyzed in a colorimetric assays per manufacturer's protocol. Media was analyzed for lactate dehydrogenase as a marker for cytotoxicity. IL-1α production was assessed as a complementary endpoint to classic cytotoxicity testing to improve predictability of irritants. […] Viability was measured as fluorescence in the media by conversion of resazurin to resorufin. […]

[3] = test system: bioprinted full thickness skin tissue; assay: IL-1α production in media of bioprinted skin tissue (colorimetric assay), skin irritation test
Source text: Bio-ink was generated by a cellular mixture of 100% primary adult human dermal fibroblasts (HDFa) in 8% gelatin (NOVOGEL 2.0) at a concentration of 100 million cells per milliliter. The cell: gelatin ratio was altered to reduce the cellular density of the dermal sheet to better mimic dermal tissue in native skin. Three-dimensional bio-ink constructs were printed by continuous deposition using the NOVOGEN BIOPRINTER platform in a 4 mm×4 mm×0.5 mm base to create a dermal structure resembling a sheet. […] The transwell printing surface contained a polytetrafluoroethylene (PTFE) membrane coated with equimolar mixture of types I and III collagen (bovine) with pores 3 μm in size. Epidermal cell paste containing a mixture of 100% primary neonatal human epidermal keratinocytes (HEKn) was then printed on top of the dermal bio-ink. Cell paste was measured post print at 87.1% viable by trypan exclusion assay. Cell numbers in the deposited epidermal layer was estimated at 60,000 cells by cell counting on a Cell-O-Meter. Immediately following the print, constructs were placed at 4° C. for 10 minutes. Cold media was then added to the outer well of the transwell in a volume of 3 ml. The media used for subsequent growth and maintenance of the skin tissue was a 50:50 ratio of HDFa: HEKn media. The initial volume added was sufficient to submerge the structure. All subsequent media changes used warmed media (37° C.) added to the outer well of the transwell and not to the inner basket. Media was changed 48 hours later and reduced to a volume of 1.5 ml per well to bring the structure to an air-liquid interface (ALI). Media and subsequently changed 48 hours after that (day 4) at a volume of 1.5 ml. On day 5, media was changed and further reduced to 1 ml per well and subsequently changed daily. On day 10, skin tissues were subject to a skin irritation test method using 1% TRITON X-100. 1% TRITON X-100 is a known irritant and reference chemical currently used in other 3D skin models. Methods were based on OECD guidelines 439 and 431 for applying human skin models to in vitro skin irritation or corrosion, respectively. On day 10, conditioned media was saved (designated time=0) and 1 ml of fresh media was added to the outer well of the transwell. The printed skin tissue was then treated with 20 μl of PBS as a negative control or with 20 μl of 1% TRITON X-100 as a positive control and known irritant. Test substances were pipetted manually to the apical surface of the tissue. TRITON X-100 was diluted to a 1% aqueous solution in deionized water and sterile filtered through a 20 micron filter before use. […] Media was saved (designated time=1 hour). Samples were then washed extensively by PBS rinsing. […] The media was then changed at 24 hours and at 48 hours post treatment. Total media collected included time points=−48, 0, 1, 24, and 48 hours. IL-1α production (R&D Systems) was analyzed in a colorimetric assays per manufacturer's protocol. Media was analyzed for lactate dehydrogenase as a marker for cytotoxicity. IL-1α production was assessed as a complementary endpoint to classic cytotoxicity testing to improve predictability of irritants. Keratinocytes normally produce and release inflammatory cytokine IL-1α in response to chemical or physical stress. […] Viability was measured as fluorescence in the media by conversion of resazurin to resorufin. […]

Structure (SMILES): CCCCCCCCCCCCOS(=O)(=O)[O-].[Na+] [SDS]
- LDH activity higher than PBS [1]: about 1.7 fold
- irritancy under these testing conditions, 5% SDS versus 1% TRITON X-100 [2]: much stronger irritant
- viability compared to the PBS control (alamar blue assay) [2]: 2.45%
- IL-1α production [3]: much stronger response
